The text below walks through data of patent US20120309728A1, “NEW STEROID INHIBITORS OF PGP FOR USE FOR INHIBITING MULTIDRUG RESISTANCE” (priority 2009, published 2012).

pIC50: −log10 of the molar value. Like-named read-outs stand apart in the source and are kept apart here.

The test system of series [1] is H295R cells. Put plainly: cells. As for the experimental part: (§1) After treatment, the number of surviving cells was evaluated by the incorporation of [^3H]thymidine as described above.
Series [2] concerns K562/R7 cells. As to the kind of experiment: Determination of IC50 for cytotoxics ([^3H]thymidine incorporation). The protocol:
as §1
On the technique in general: Dividing cells build labelled thymidine or BrdU into new DNA.

A further series deals with resistant R7 cells. As to the kind of experiment: Reversion of chemoresistance to doxorubicin by steroid modulators (modulation of IC50 for doxorubicin). Format: cell-based, human. Conditions: in vitro, cyclosporine A in the same conditions. As for the experimental part:
FIGS. 3 and 4 represent the effects of compounds of the invention (steroid modulators) on chemosensitization of resistant R7 cells to doxorubicin (DOXO), evaluated by [^3H]thymidine incorporation. Resistant R7 cells were incubated for 24 hours with increasing concentrations of doxorubicinin the absence (∘) or in the presence of said steroid modulators. As a control, the sensitive K562 cells were incubated with the same concentrations of doxorubicin ([…]).
Sensitive parental K562 cells were also treated with the same increasing concentrations of DOXO (from 10^−8 to 10^−4 M) in the absence of steroids, as a control.

For series [3], the system named is H295R cells. As to the kind of experiment: Cytotoxicity assay using [^3H]thymidine incorporation in surviving cells, with doxorubicin plus steroid modulator. Type of series: cell-based, human. Conditions: comment on Table 2, both value columns. The protocol: Doxorubicine (DOXO) at 10^−6 M was added shortly thereafter to each well. […] Finally the precipitate was solubilized by addition of 300 μL of a solution of sodium deoxycholate (4% in NaOH 0.5 M) (O. Joly-Pharaboz et al., J Steroid Biochem. Mol. Biol. 73 (2000) 237-249). Radioactivity was measured (Tri-Carb 1900 CA, Packard) after addition of liquid scintillation cocktail (Perkin Elmer, Courtaboeuf, France). […] At least three different experiments were performed for each cell type.

In the next series the test system is R7 cells xenograft. As to the kind of experiment: In vivo efficiency in SCID mice xenografted with R7 cells. From the text: (§2) FIGS. 7 and 8 represent the tumour volume of mice treated with vehicle ([…]), doxorubicin (∘), compound (33) alone (▾), and compound (33) with doxorubicin (Δ). The tumor volume is indicated as a function of days. FIG. 7 concerns mice xenografted with H295R cells and FIG. 8 concerns mice xenografted with R7 cells (the arrow indicates the beginning of treatment of mice).
(§3) For each xenograft, four groups of five mice developing a tumour in both flanks were employed. Group 1 received vehicle alone, group 2 received DOXO (1.5 mg/kg/mouse+vehicle), group 3 received (33) derivative (10 mg/kg/mouse solubilised with vehicle) and group 4 received DOXO+derivative.

The next series relates to H295R cells xenograft. As to the kind of experiment: In vivo efficiency in SCID mice xenografted with H295R cells.
From the text: as §2, §3

For series [4], the system named is K562/R7 cells. As to the kind of experiment: Cytotoxicity assay using MTT reagent, with doxorubicin plus steroid modulator. Format: cell-based, human. Conditions: for Surviving cells R7 cells (% untreated cells): doxorubicin 10^−6M + steroid modulator 10^−6M, 72 h; for activity compared with cyclosporine A (in words): comment on Table 2 bis, R7 cells. The protocol: Doxorubicin at 10^−6 M was then added to each well. After incubation for 72 h, 20 μL of MTT reagent (5 mg/mL in PBS buffer) were added to each well and the plate was further incubated for 4 h at 37° C., allowing viable cells to change the yellow MTT into dark-blue formazan crystals. Supernatants were carefully discarded and 100 μL of isopropanol containing 10% HCL 1M were added to dissolve the formazan crystals. Absorbance in each well was determined at 570 nm using a microplate reader (MultisKan EX, Thermo Electron). […] At least three different experiments were performed. Results were expressed as the percentage of surviving cells in each well compared to untreated cells.
Background: Tetrazolium dyes change colour on reduction, which living cells bring about.

A further series concerns R7 cells. As to the kind of experiment: Intracellular accumulation of daunorubicin measured by flow cytometry. Format: cell-based, human. To be noted: daunorubicin 10 μM, compound 10 μM, 1 h at 37° C. As for the experimental part:
The accumulation of daunorubicin in the presence of steroid modulators according to the invention, i.e. compounds having formula (I), was measured by flow cytometry using a reported procedure (G. Comte et al, J. Med. Chem., 44: 763-768, 2001). K562 or R7 cells ([…]) were incubated for 1 h at 37° C. with 1 mL RPMI 1640 medium containing daunorubicin at 10 μM, in the presence or absence of compounds of the invention (10 μM). The cells were then washed twice with ice-cold PBS and kept on ice until analysis by flow cytometry on a FACS-II (Becton-Dickinson Corp., Mountain View, Calif.). Assays were performed in duplicate, in at least three separate experiments.

Where [5] appears, read: DOXO 1.5 mg/kg/mouse + derivative 10 mg/kg/mouse (group 4) versus groups 1, 2 and 3.
[6] abbreviates: DOXO + derivative (group 4), 40 days of treatment.

As to `O=C1c2c(O)ccc(O)c2C(=O)c2c(NCCNCCO)ccc(NCCNCCO)c21` [mitoxantrone], the “resistance of the cells to the cytotoxic drug (in words)” value (“resistance of the cells” for short) in the series with H295R cells [1] and with K562/R7 cells [2] was “resistant” each time.

In the case of `COc1cccc2c1C(=O)c1c(O)c3c(c(O)c1C2=O)C[C@@](O)(C(=O)CO)C[C@@H]3O[C@H]1C[C@H](N)[C@H](O)[C@H](C)O1` [doxorubicin], the pIC50 in the series with H295R cells [1] (Homo sapiens, NCI-H295R, 24 h, read-out: IC50 of cytotoxic drug (concentration inhibiting cell growth by 50%)) was 4.69; with K562/R7 cells [2] (Homo sapiens, K562/R7, 24 h, read-out: IC50 of cytotoxic drug (concentration inhibiting cell growth by 50%)), 4.20.

As for `CC[C@]1(O)C[C@@H]2CN(CCc3c([nH]c4ccccc34)[C@@](C(=O)OC)(c3cc4c(cc3OC)N(C)[C@H]3[C@@](O)(C(=O)OC)[C@H](OC(C)=O)[C@]5(CC)C=CCN6CC[C@]43[C@@H]65)C2)C1` [vinblastine], in the series on K562/R7 cells [2], the “resistance of the cells” value was “resistant”.

Consider `CC(=O)C1CCC2C3C([C@H](OC4CCCCO4)C[C@]12C)[C@@]1(C)CCC(=O)C[C@H]1C[C@H]3OC(=O)c1ccccc1` (stereo partly drawn) [Compound 33, 7α-Benzoyloxy-11α-O-[2′(R)]tetrahydropyranyl-oxy(5β)pregnane-3,20-dione], for which the “potency relative to cyclosporine A in decreasing IC50 for doxorubicin” value in the series on resistant R7 cells is reported as 10 fold. For the same compound, the “activity to increase the cytotoxicity of doxorubicin (in words)” value in the series with H295R cells [3] was “activity similar to cyclosporine A”. The development of tumour entry in the series on R7 cells xenograft (setting [5]) and in the series on H295R cells xenograft (setting [5]) was “delay in the development of tumour” in each case. The survival time entry in the series on R7 cells xenograft (DOXO + derivative (group 4)) and in the series with H295R cells xenograft (DOXO + derivative (group 4)) was “longer survival time” each time. The tumour volume entry with R7 cells xenograft (setting [6]) was “remains low and stable”; with H295R cells xenograft (setting [6]), “remains low and stable”. In addition, the “Surviving cells R7 cells (% untreated cells)” value in the series on K562/R7 cells [4] was 1.5 ± 0.9 % untreated cells.

As for `CCC1=C[C@@H]2CN(C1)Cc1c([nH]c3ccccc13)[C@@](C(=O)OC)(c1cc3c(cc1OC)N(C)[C@H]1[C@@](O)(C(=O)OC)[C@H](OC(C)=O)[C@]4(CC)C=CCN5CC[C@]31[C@@H]54)C2` [vinorelbine], the “resistance of the cells” value in the series on H295R cells [1] is listed as “resistant”.

With `CC(=O)[C@@]1(OC2CCCCO2)CCC2C3CC[C@@H]4CC(=O)CC[C@]4(C)C3[C@H](OC3CCCCO3)C[C@@]21C` (stereo partly drawn) [Compound 51, 11α,17α-Bis-O-[2′(S),2′(R)]tetrahydropyranyloxy(5β)pregnane-3,20-dione], in the series with resistant R7 cells, the “potency relative to cyclosporine A in decreasing IC50 for doxorubicin” value was 10 fold. In addition, the Daunorubicin accumulation in the series with R7 cells was 68.02 ± 15.6 % of the accumulation measured in the presence of cyclosporine A.

With `COC(=O)CC[C@@H](C)[C@H]1CC[C@H]2[C@@H]3[C@H](O[C@H]4CCCCO4)CC4CC(=O)CC[C@]4(C)[C@H]3C[C@H](OC(=O)c3ccccc3)[C@]12C` (stereo partly drawn) [Compound 63, methyl 3-oxo-12α-benzoyloxy-7α-O-[2′(S)]tetrahydro-pyranyloxycholanate], in the series on K562/R7 cells [4], the “activity compared with cyclosporine A (in words)” value is recorded as “activity higher than that of the reference compound cyclosporine A” and the “Surviving cells R7 cells (% untreated cells)” value is listed as 0.7 ± 0.06 % untreated cells. Also, the Daunorubicin accumulation with R7 cells is 104.7 ± 7.0 % of the accumulation measured in the presence of cyclosporine A.

With `COc1cc2c(c(OC)c1OC)-c1ccc(OC)c(=O)cc1[C@@H](NC(C)=O)CC2` [colchicine], the “resistance of the cells” value with K562/R7 cells [2] (R7 cells, 24 h treatment) is “resistant”.

Regarding `COC(=O)CC[C@@H](C)[C@H]1CC[C@H]2[C@@H]3[C@H](OC(=O)c4ccccc4)CC4CC(=O)CC[C@]4(C)[C@H]3C[C@H](O[C@@H]3CCCCO3)[C@]12C` (single isomer, unassigned) [Compound 60], the “Surviving cells R7 cells (% untreated cells)” value in the series with K562/R7 cells [4] worked out at 2.2 ± 0.3 % untreated cells. Besides, the Daunorubicin accumulation in the series on R7 cells is given as 79.8 ± 6.1 % of the accumulation measured in the presence of cyclosporine A.

On to `COC(=O)CC[C@@H](C)[C@H]1CC[C@H]2[C@@H]3[C@H](OC(=O)c4ccccc4)CC4CC(=O)CC[C@]4(C)[C@H]3C[C@H](O[C@H]3CCCCO3)[C@]12C` (stereo partly drawn) [Compound 59, Methyl 3-oxo-7α-benzoyloxy-12α-O-[2′(S)]tetrahydropyranyloxycholanate], for which the “Surviving cells R7 cells (% untreated cells)” value in the series on K562/R7 cells [4] turned out to be 1.8 ± 0.1 % untreated cells. Moreover, the Daunorubicin accumulation in the series on R7 cells is given as 85.8 ± 2.6 % of the accumulation measured in the presence of cyclosporine A.

For the compound `COC(=O)CC[C@@H](C)[C@H]1CC[C@H]2[C@@H]3[C@H](O[C@@H]4CCCCO4)CC4CC(=O)CC[C@]4(C)[C@H]3C[C@H](OC(=O)c3ccccc3)[C@]12C` (stereo partly drawn) [Compound 64, methyl 3-oxo-12α-benzoyloxy-7α-O-[2′(R)]tetra-hydropyranyloxycholanate], in the series on K562/R7 cells [4], the “activity compared with cyclosporine A (in words)” value was “activity higher than that of the reference compound cyclosporine A” and the “Surviving cells R7 cells (% untreated cells)” value was found to be 0.8 ± 0.06 % untreated cells. Also, the Daunorubicin accumulation in the series with R7 cells is recorded as 10.0 ± 1.5 % of the accumulation measured in the presence of cyclosporine A.
